Reference: ChEMBL document CHEMBL3992527, “Design and Synthesis of Novel Nonsteroidal Anti-Inflammatory Drugs and Carbonic Anhydrase Inhibitors Hybrids (NSAIDs-CAIs) for the Treatment of Rheumatoid Arthritis” (J Med Chem, 2017)
Active and inactive are the calls of the source.

What was measured:
Rattus norvegicus [1] = assay: (§1) Antihyperalgesic activity in complete Freund's adjuvant-induced Sprague-Dawley rat rheumatoid arthritis model assessed as improvement in postural imbalance by measuring difference between weight burdened on contralateral and ipsilateral paw at 10 mg/kg, po administered once on day 14 post complete Freund's adjuvant challenge measured after 15 to 30 mins by incapacitance test; assay type: functional, organism-based
Rattus norvegicus [2] = assay: (§2) Antihyperalgesic activity in complete Freund's adjuvant-induced Sprague-Dawley rat rheumatoid arthritis model assessed as increase in weight tolerance on ipsilateral paw at 10 mg/kg, po administered once on day 14 post complete Freund's adjuvant challenge measured after 45 mins post dose by analgesimetry; assay type: functional, organism-based
Carbonic anhydrase 7 = Carbonic anhydrase 7 (Homo sapiens, UniProt P43166); assay: Inhibition of recombinant human CA7 preincubated for 15 mins by stopped-flow CO2 hydration assay
Carbonic anhydrase 7, sequence (P43166 whole entry): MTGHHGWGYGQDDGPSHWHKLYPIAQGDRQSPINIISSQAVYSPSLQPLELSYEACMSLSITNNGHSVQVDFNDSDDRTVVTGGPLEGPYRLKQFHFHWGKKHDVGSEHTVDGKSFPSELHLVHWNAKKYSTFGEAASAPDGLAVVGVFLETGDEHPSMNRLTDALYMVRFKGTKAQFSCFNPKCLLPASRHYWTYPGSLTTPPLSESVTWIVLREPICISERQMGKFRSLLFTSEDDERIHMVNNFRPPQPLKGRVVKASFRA

Rattus norvegicus [3] = assay: Effect on normal pain sensitivity in complete Freund's adjuvant-induced Sprague-Dawley rat rheumatoid arthritis model assessed as change in contralateral paw withdrawal threshold at 10 mg/kg, po administered once on day 14 post complete Freund's adjuvant challenge measured after 15 to 75 mins by analgesimetry; assay type: ADME, organism-based; conditions: in vivo
Carbonic anhydrase 1 = Carbonic anhydrase 1 (Homo sapiens, UniProt P00915); assay: Inhibition of recombinant human CA1 preincubated for 15 mins by stopped-flow CO2 hydration assay
Carbonic anhydrase 1, sequence (P00915 whole entry): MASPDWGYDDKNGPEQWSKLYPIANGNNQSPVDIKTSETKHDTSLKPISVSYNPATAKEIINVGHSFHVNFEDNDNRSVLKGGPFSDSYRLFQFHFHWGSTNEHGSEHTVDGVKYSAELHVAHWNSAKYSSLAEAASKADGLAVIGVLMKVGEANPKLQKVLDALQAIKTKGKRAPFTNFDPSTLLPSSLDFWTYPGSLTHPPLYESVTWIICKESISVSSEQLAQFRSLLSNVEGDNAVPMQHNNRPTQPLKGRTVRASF

Carbonic anhydrase 2 = Carbonic anhydrase 2 (Homo sapiens, UniProt P00918); assay: Inhibition of recombinant human CA2 preincubated for 15 mins by stopped-flow CO2 hydration assay
Carbonic anhydrase 9 = Carbonic anhydrase 9 (Homo sapiens, UniProt Q16790)
Description: Inhibition of recombinant human CA9 catalytic domain preincubated for 15 mins by stopped-flow CO2 hydration assay

Carbonic anhydrase 12 = Carbonic anhydrase 12 (Homo sapiens, UniProt O43570); assay: Inhibition of recombinant human CA12 preincubated for 15 mins by stopped-flow CO2 hydration assay
Carbonic anhydrase 12, sequence (O43570 whole entry): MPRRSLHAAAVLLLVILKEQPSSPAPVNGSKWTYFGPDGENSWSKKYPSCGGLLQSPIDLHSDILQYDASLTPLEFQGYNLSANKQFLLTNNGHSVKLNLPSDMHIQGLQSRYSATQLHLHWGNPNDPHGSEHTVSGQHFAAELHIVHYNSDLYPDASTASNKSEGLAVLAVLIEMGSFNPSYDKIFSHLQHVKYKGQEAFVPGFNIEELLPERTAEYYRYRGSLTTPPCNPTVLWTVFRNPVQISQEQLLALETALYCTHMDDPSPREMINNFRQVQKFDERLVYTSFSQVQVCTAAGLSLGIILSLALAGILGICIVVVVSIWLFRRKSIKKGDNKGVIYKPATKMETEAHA

Rattus norvegicus [4] = assay: as §1, with “at 60” for “after 15 to 30”, “mins post dose” for “mins”; assay type: functional, organism-based
Rattus norvegicus [5] = assay: as §2, with “as” for “as increase in”, “at 30” for “after 45”, “analgesimetry (reference value: 47.6 +/- 1.2 g)” for “analgesimetry”; assay type: functional
Rattus norvegicus [6] = assay: as §2, with “as” for “as increase in”, “at” for “after”, “analgesimetry (reference value: 47.6 +/- 1.2 g)” for “analgesimetry”; assay type: functional
Rattus norvegicus [7] = assay: as §2, with “at 75” for “after 45”; assay type: functional, organism-based
Rattus norvegicus [8] = assay: Antihyperalgesic activity in complete Freund's adjuvant-induced Sprague-Dawley rat rheumatoid arthritis model assessed as improvement in postural imbalance by measuring difference between weight burdened on contralateral and ipsilateral paw at 10 mg/kg, po administered once on day 14 post complete Freund's adjuvant challenge measured at 45 mins post dose by incapacitance test (reference value: 45.6 +/- …; assay type: functional
Rattus norvegicus [9] = assay: Antihyperalgesic activity in complete Freund's adjuvant-induced Sprague-Dawley rat rheumatoid arthritis model assessed as improvement in postural imbalance by measuring difference between weight burdened on contralateral and ipsilateral paw at 10 mg/kg, po administered once on day 14 post complete Freund's adjuvant challenge measured at 30 mins post dose by incapacitance test (reference value: 45.6 +/- …; assay type: functional
Carbonic anhydrase 4 = Carbonic anhydrase 4 (Homo sapiens, UniProt P22748)
Carbonic anhydrase 4, sequence (P22748 whole entry): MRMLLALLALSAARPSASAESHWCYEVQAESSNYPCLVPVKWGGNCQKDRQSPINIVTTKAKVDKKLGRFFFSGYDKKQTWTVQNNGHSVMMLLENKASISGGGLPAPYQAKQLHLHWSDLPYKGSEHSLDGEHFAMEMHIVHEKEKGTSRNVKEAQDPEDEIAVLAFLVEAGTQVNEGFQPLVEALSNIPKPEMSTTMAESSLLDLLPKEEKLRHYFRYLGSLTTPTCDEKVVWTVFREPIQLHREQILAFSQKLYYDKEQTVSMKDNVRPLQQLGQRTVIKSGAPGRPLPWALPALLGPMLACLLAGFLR
Description: Inhibition of recombinant human CA4 preincubated for 15 mins by stopped-flow CO2 hydration assay

Rattus norvegicus [10] = assay: as §2, with “after 30 to” for “after”; assay type: functional, organism-based
Rattus norvegicus [11] = assay: as §1, with “100” for “10”; assay type: functional, organism-based
Rattus norvegicus [12] = assay: as §2, with “100” for “10”, “15 to 30” for “45”; assay type: functional, organism-based
Rattus norvegicus [13] = assay: as §2, with “15 to 75” for “45”; assay type: functional, organism-based

CC(C(=O)NCCOc1ccc2ccc(=O)oc2c1)c1ccc(-c2ccccc2)c(F)c1 (racemic)
Activity (Rattus norvegicus [1]): Active | Activity (Rattus norvegicus [2]): Active | Ki (Carbonic anhydrase 7): > 100 nM | Activity (Rattus norvegicus [3]): Non-Toxic | Ki (Carbonic anhydrase 1): > 100 nM | Ki (Carbonic anhydrase 2): > 100 nM | Ki (Carbonic anhydrase 9): > 100 nM | Ki (Carbonic anhydrase 12): > 100 nM

COc1ccc2c(c1)c(CC(=O)NCCOc1ccc3oc(=O)ccc3c1)c(C)n2C(=O)c1ccc(Cl)cc1
Activity (Rattus norvegicus [1]): Active | Activity (Rattus norvegicus [2]): Active | Ki (Carbonic anhydrase 7): > 100 nM | Activity (Rattus norvegicus [3]): Non-Toxic | Ki (Carbonic anhydrase 1): > 100 nM | Ki (Carbonic anhydrase 2): > 100 nM | Ki (Carbonic anhydrase 9): 31.3 nM

CC1=C(CC(=O)NCCOc2ccc3oc(=O)ccc3c2)c2cc(F)ccc2/C1=C\c1ccc([S+](C)[O-])cc1 (stereo not given)
Ki (Carbonic anhydrase 7): > 100 nM | Ki (Carbonic anhydrase 1): > 100 nM | Ki (Carbonic anhydrase 2): > 100 nM | Ki (Carbonic anhydrase 9): 30.8 nM

O=C(c1ccccc1)c1ccc2n1CCC2C(=O)NCCOc1ccc2oc(=O)ccc2c1 (racemic)
Ki (Carbonic anhydrase 7): > 100 nM | Ki (Carbonic anhydrase 1): > 100 nM | Ki (Carbonic anhydrase 2): > 100 nM | Ki (Carbonic anhydrase 9): 31.8 nM | Ki (Carbonic anhydrase 12): > 100 nM

CC(C)Cc1ccc(C(C)C(=O)NCCOc2ccc3ccc(=O)oc3c2)cc1 (racemic)
Activity (Rattus norvegicus [4]): Active | Activity (Rattus norvegicus [5]): 63.8 g | Activity (Rattus norvegicus [6]): 61.3 g | Ki (Carbonic anhydrase 7): > 100 nM | Activity (Rattus norvegicus [3]): Non-Toxic | Ki (Carbonic anhydrase 1): > 100 nM | Activity (Rattus norvegicus [7]): Active | Ki (Carbonic anhydrase 2): > 100 nM | Activity (Rattus norvegicus [8]): 11.1 g | Ki (Carbonic anhydrase 9): > 100 nM | Activity (Rattus norvegicus [9]): 7.9 g | Ki (Carbonic anhydrase 4): 9.1 nM | Ki (Carbonic anhydrase 12): 39 nM

CC1=C(CC(=O)NCCOc2ccc3ccc(=O)oc3c2)c2cc(F)ccc2/C1=C\c1ccc([S+](C)[O-])cc1 (stereo not given)
Activity (Rattus norvegicus [1]): Active | Ki (Carbonic anhydrase 7): > 100 nM | Activity (Rattus norvegicus [3]): Non-Toxic | Ki (Carbonic anhydrase 1): > 100 nM | Ki (Carbonic anhydrase 2): > 100 nM | Ki (Carbonic anhydrase 9): 27.9 nM | Activity (Rattus norvegicus [10]): Active

CC(C(=O)NCCOc1ccc2oc(=O)ccc2c1)c1cccc(C(=O)c2ccccc2)c1 (racemic)
Ki (Carbonic anhydrase 7): > 100 nM | Ki (Carbonic anhydrase 1): > 100 nM | Ki (Carbonic anhydrase 2): > 100 nM | Ki (Carbonic anhydrase 9): 54.7 nM | Ki (Carbonic anhydrase 12): > 100 nM

CC(C)Cc1ccc(C(C)C(=O)O)cc1 (stereo not given)
Activity (Rattus norvegicus [11]): Active | Activity (Rattus norvegicus [12]): Active

CC(C)Cc1ccc(C(C)C(=O)NCCOc2ccc3oc(=O)ccc3c2)cc1 (stereo not given)
Ki (Carbonic anhydrase 7): > 100 nM | Ki (Carbonic anhydrase 1): > 100 nM | Ki (Carbonic anhydrase 2): > 100 nM | Ki (Carbonic anhydrase 9): > 100 nM | Ki (Carbonic anhydrase 4): 0.44 nM | Ki (Carbonic anhydrase 12): > 100 nM

COc1ccc2c(c1)c(CC(=O)NCCOc1ccc3ccc(=O)oc3c1)c(C)n2C(=O)c1ccc(Cl)cc1
Ki (Carbonic anhydrase 7): > 100 nM | Activity (Rattus norvegicus [3]): Non-Toxic | Ki (Carbonic anhydrase 1): > 100 nM | Ki (Carbonic anhydrase 2): > 100 nM | Activity (Rattus norvegicus [13]): inactive | Ki (Carbonic anhydrase 9): 20.1 nM

O=C(Cc1ccccc1Nc1c(Cl)cccc1Cl)NCCOc1ccc2oc(=O)ccc2c1
Ki (Carbonic anhydrase 7): > 100 nM | Ki (Carbonic anhydrase 1): > 100 nM | Ki (Carbonic anhydrase 2): > 100 nM | Ki (Carbonic anhydrase 4): 5.6 nM

O=C(c1ccccc1)c1ccc2n1CCC2C(=O)NCCOc1ccc2ccc(=O)oc2c1 (racemic)
Activity (Rattus norvegicus [2]): Active | Ki (Carbonic anhydrase 7): > 100 nM | Activity (Rattus norvegicus [3]): Non-Toxic | Ki (Carbonic anhydrase 1): > 100 nM | Ki (Carbonic anhydrase 2): > 100 nM | Ki (Carbonic anhydrase 9): > 100 nM | Ki (Carbonic anhydrase 12): > 100 nM

COc1ccc2cc([C@H](C)C(=O)NCCOc3ccc4oc(=O)ccc4c3)ccc2c1
Ki (Carbonic anhydrase 7): > 100 nM | Ki (Carbonic anhydrase 1): > 100 nM | Ki (Carbonic anhydrase 2): > 100 nM | Ki (Carbonic anhydrase 9): > 100 nM | Ki (Carbonic anhydrase 12): > 100 nM

O=C(Cc1ccccc1Nc1c(Cl)cccc1Cl)NCCOc1ccc2ccc(=O)oc2c1
Ki (Carbonic anhydrase 7): > 100 nM | Activity (Rattus norvegicus [3]): Non-Toxic | Ki (Carbonic anhydrase 1): > 100 nM | Ki (Carbonic anhydrase 2): > 100 nM | Activity (Rattus norvegicus [13]): inactive | Ki (Carbonic anhydrase 4): 9.1 nM

COc1ccc2cc([C@H](C)C(=O)NCCOc3ccc4ccc(=O)oc4c3)ccc2c1
Ki (Carbonic anhydrase 7): > 100 nM | Ki (Carbonic anhydrase 1): > 100 nM | Ki (Carbonic anhydrase 2): > 100 nM | Ki (Carbonic anhydrase 9): > 100 nM

CC(C(=O)NCCOc1ccc2oc(=O)ccc2c1)c1ccc(-c2ccccc2)c(F)c1 (racemic)
Ki (Carbonic anhydrase 7): > 100 nM | Activity (Rattus norvegicus [3]): Non-Toxic | Ki (Carbonic anhydrase 1): > 100 nM | Ki (Carbonic anhydrase 2): > 100 nM | Activity (Rattus norvegicus [13]): inactive

CC(C(=O)NCCOc1ccc2ccc(=O)oc2c1)c1cccc(C(=O)c2ccccc2)c1 (racemic)
Ki (Carbonic anhydrase 7): > 100 nM | Activity (Rattus norvegicus [3]): Non-Toxic | Ki (Carbonic anhydrase 1): > 100 nM | Ki (Carbonic anhydrase 2): 85.4 nM | Activity (Rattus norvegicus [13]): inactive | Ki (Carbonic anhydrase 9): > 100 nM
